# Patent US20240009150A1, “CAPSAICYNS IN THE TREATMENT OF LEAKY GUT” (AXICHEM AB [SE]/[SE], priority 2020, published 2024)
# Test system: Salmonella enterica subsp. enterica serovar Paratyphi C (ATCC® BAA1714™)
# Test: Inhibition of biofilm formation with different capsaicyn compounds, crystal violet staining assay (Example 6)
# Type: cell-based
# Conditions: for Biofilm (OD 595 nm): 24 hr, 30° C.
# Protocol: Biofilm formation was quantified with modifications using the method described by Stepanovic et al. (Journal of Microbiological Methods, 2000, 40(2), 175-19) with modifications. Using a 96-well microplate duplicate the test solutions were filled at the above selected doses. Cultures were grown for 18 hr in LB at 30° C. and adjusted to OD 0.1 at 600 nm. 20 μL of the culture were added into each well and the remainder of the volume to 200 μL per well was filled with LB. Unused external wells were filled with 200 μL of sterile water to prevent evaporation.
# After 24 hr of incubation, supernatants were discarded, and the wells were washed three times with 200 μL of sterile phosphate buffered saline (PBS). Bacteria adhered to the wells were fixed with 200 μL of methanol for 15 min, the methanol was discarded, and the plates dried at 25° C.
# Each well was stained with 200 μL of 0.3% (w/v) crystal violet solution for 5 min at 25° C. Crystal violet excess was pipetted out, and the wells were rinsed five times with sterile PBS. 200 μL of 33% (v/v) glacial acetic acid were added to the wells for 30 min to solubilise the dye adhered to the cell walls. Optical density (OD) was measured at 595 nm using a microplate spectrophotometer as a direct measure of biofilm formation. P. aeruginosa in 3% DMSO will be used as the negative control.
# A stock solution of 500 μg of phenylcapsaicin, capsaicin, compound a, compound b, compound c, was prepared by dissolving 500 μg in 100 μl of ethanol and 900 μl of sterile water. The stock solutions were sequentially diluted with quadruple volumes of solvent (10% aqueous ethanol solution) to yield 125/31.25 (32)/7.81 (8)/1.95 (2) μg/ml test solutions.
# ATCC® BAA1714™ was used to determine the biofilm inhibition activity. Inducer N-hexanoyl homoserine lactone (C6-HSL) was purchased from Sigma-Aldrich. ATCC® BAA1714™ was cultivated in Luria-Bertani (LB) medium (LB, 5 g yeast extract, 10 g tryptone, 5 g NaCl, 1 L water) at 37° C. overnight under aerobic conditions.
# Crystal violet staining assay was performed as in Experiment 3, using ATCC® BAA1714™ in 3% DMSO as the control.
# [1] = any dose tested (125, 32, 8, 2 μg/ml)
SMILES,Biofilm (OD 595 nm) (2 μg/mL),biofilm formation inhibition activity relative to the activity of phenylcapsaicin (2 μg/ml dose),"biofilm formation inhibition activity, in words (2 μg/ml dose)",Biofilm (OD 595 nm) (8 μg/mL),Biofilm (OD 595 nm) (32 μg/mL),Biofilm (OD 595 nm) (125 μg/mL),"biofilm formation inhibition activity, in words [1]"
COc1cc(CNC(=O)CCCCC#CC2CCCCC2)ccc1O [compound a],6.5 OD 595 nm,~33%,modest biofilm formation inhibition activity,6.8 OD 595 nm,7.1 OD 595 nm,8.2 OD 595 nm,–
COc1cc(CNC(=O)CCCCC#CC(C)(C)C)ccc1OC(C)=O [compound c],8.0 OD 595 nm,–,–,8.6 OD 595 nm,8.5 OD 595 nm,8.7 OD 595 nm,did not show biofilm formation inhibition activity
COc1cc(CNC(=O)CCCCC#CC(C)(C)C)ccc1O [compound b],8.1 OD 595 nm,–,–,7.9 OD 595 nm,8.2 OD 595 nm,8.8 OD 595 nm,did not show biofilm formation inhibition activity
